± gives the standard deviation of the averaged measurements.
Assays:
BMN-673 = compound: Cn1ncnc1[C@H]1c2n[nH]c(=O)c3cc(F)cc(c23)N[C@@H]1c1ccc(F)cc1 [BMN-673]; test: surviving fraction relative to DMSO-only wells; higher = less growth inhibition; conditions: exposure time: 5 days
Procedure, shortened: (§1)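 Inhibitors at 0.5, 1, 5, 10, 50, 100, 500 and 1000 nM were applied continuously for five days to tumour cell lines seeded in log phase at 250–500 cells per well in 384-well plates 24 hours earlier. Viability was measured by CellTiter-Glo luminescence and expressed as surviving fraction relative to the median of DMSO-only wells. Luminescence was taken after 10 minutes at room temperature.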

CABOZANTINIB = compound: COc1cc2nccc(Oc3ccc(NC(=O)C4(C(=O)Nc5ccc(F)cc5)CC4)cc3)c2cc1OC [CABOZANTINIB]; test: as above; conditions: exposure time: 5 days
Procedure, shortened: as §1

Test System	surviving fraction (BMN-673; 0.5 nM)	surviving fraction (BMN-673; 1 nM)	surviving fraction (BMN-673; 5 nM)	surviving fraction (BMN-673; 10 nM)	surviving fraction (BMN-673; 50 nM)	surviving fraction (BMN-673; 100 nM)	surviving fraction (BMN-673; 500 nM)	surviving fraction (BMN-673; 1000 nM)	surviving fraction (CABOZANTINIB; 0.5 nM)	surviving fraction (CABOZANTINIB; 1 nM)	surviving fraction (CABOZANTINIB; 5 nM)	surviving fraction (CABOZANTINIB; 10 nM)	surviving fraction (CABOZANTINIB; 50 nM)	surviving fraction (CABOZANTINIB; 100 nM)	surviving fraction (CABOZANTINIB; 500 nM)	surviving fraction (CABOZANTINIB; 1000 nM)
SG43 HEADNECK	1.19 ± 0.23	0.909 ± 0.061	0.694 ± 0.044	0.678 ± 0.046	0.74 ± 0.093	0.703 ± 0.089	0.678 ± 0.091	0.785 ± 0.056	0.887 ± 0.051	0.863 ± 0.15	0.883 ± 0.019	0.788 ± 0.11	0.759 ± 0.18	0.737 ± 0.2	0.757 ± 0.056	0.708 ± 0.072
SIHA CERVIX	1.01 ± 0.055	1.03 ± 0.053	1.15 ± 0.062	1.05 ± 0.013	0.929 ± 0.038	0.784 ± 0.13	0.602 ± 0.035	0.454 ± 0.041	0.857 ± 0.073	0.835 ± 0.051	0.979 ± 0.02	0.918 ± 0.017	0.988 ± 0.024	0.929 ± 0.038	0.737 ± 0.032	0.68 ± 0.033
SJSA1 BONE	1.67 ± 0.078	1.72 ± 0.018	1.72 ± 0.12	1.86 ± 0.1	0.969 ± 0.054	1.27 ± 0.022	1.46 ± 0.06	1.12 ± 0.031	1.47 ± 0.13	1.63 ± 0.045	1.56 ± 0.07	1.75 ± 0.071	1.627 ± 0.0032	1.74 ± 0.13	1.65 ± 0.059	1.78 ± 0.089
SKBR3 BREAST	1.154 ± 0.0069	1.11 ± 0.12	0.863 ± 0.15	0.881 ± 0.044	0.774 ± 0.075	0.575 ± 0.078	0.492 ± 0.041	0.481 ± 0.014	1.02 ± 0.1	0.954 ± 0.11	1.07 ± 0.083	0.973 ± 0.011	1.12 ± 0.11	1.06 ± 0.098	0.987 ± 0.077	0.973 ± 0.025
SNU475 LIVER	1.02 ± 0.034	1.01 ± 0.097	0.763 ± 0.47	0.99 ± 0.032	0.882 ± 0.087	0.851 ± 0.031	0.643 ± 0.025	0.508 ± 0.051	1 ± 0.033	0.972 ± 0.049	0.987 ± 0.031	0.991 ± 0.053	1 ± 0.012	0.985 ± 0.048	0.923 ± 0.023	0.876 ± 0.021
SUM44 BREAST	1.16 ± 0.29	1.02 ± 0.16	0.976 ± 0.12	0.798 ± 0.029	1.03 ± 0.21	0.98 ± 0.15	1.09 ± 0.2	0.988 ± 0.11	1.21 ± 0.32	1.18 ± 0.3	1.24 ± 0.24	1.21 ± 0.23	1.36 ± 0.4	1.3 ± 0.35	1.2 ± 0.33	1.27 ± 0.39
SUM149 BREAST	0.857 ± 0.051	0.721 ± 0.068	0.301 ± 0.019	0.226 ± 0.023	0.176 ± 0.017	0.163 ± 0.014	0.149 ± 0.0045	0.145 ± 0.024	1.03 ± 0.054	0.979 ± 0.19	0.912 ± 0.061	0.997 ± 0.021	0.987 ± 0.12	0.96 ± 0.084	0.91 ± 0.15	0.924 ± 0.091
SUM149.B1*.S BREAST	1.11 ± 0.036	1.03 ± 0.0064	1.05 ± 0.058	0.931 ± 0.059	0.808 ± 0.055	0.739 ± 0.063	0.451 ± 0.075	0.33 ± 0.052	1.03 ± 0.07	1.02 ± 0.034	0.998 ± 0.046	1.04 ± 0.025	1.039 ± 0.0013	0.979 ± 0.037	0.992 ± 0.029	0.967 ± 0.021
SUM159 BREAST	1.12 ± 0.016	1.104 ± 0.0035	1.07 ± 0.013	1.06 ± 0.011	1.079 ± 0.0027	1.057 ± 0.0089	1.04 ± 0.013	0.957 ± 0.031	1.02 ± 0.03	1.02 ± 0.028	1.01 ± 0.026	1.01 ± 0.036	1 ± 0.025	1.01 ± 0.034	0.986 ± 0.036	0.977 ± 0.025
SYO1 SYNOVIAL	0.855 ± 0.052	0.783 ± 0.023	0.499 ± 0.0035	0.336 ± 0.0059	0.168 ± 0.0078	0.125 ± 0.0048	0.0544 ± 0.0063	0.0423 ± 0.00058	0.92 ± 0.027	0.938 ± 0.042	0.929 ± 0.037	0.859 ± 0.02	0.807 ± 0.022	0.818 ± 0.044	0.721 ± 0.041	0.694 ± 0.031
T47D BREAST	1.01 ± 0.04	0.975 ± 0.036	0.872 ± 0.051	0.82 ± 0.026	0.714 ± 0.019	0.654 ± 0.023	0.535 ± 0.017	0.455 ± 0.0098	0.969 ± 0.016	0.988 ± 0.028	1.02 ± 0.038	1.04 ± 0.075	1.059 ± 0.0083	1.07 ± 0.021	1.07 ± 0.034	1.03 ± 0.022
U2OS BONE	0.9887 ± 0.0081	0.994 ± 0.055	0.969 ± 0.018	0.915 ± 0.029	0.834 ± 0.026	0.732 ± 0.029	0.658 ± 0.029	0.647 ± 0.038	1.015 ± 0.0081	1.02 ± 0.028	1.03 ± 0.022	1.003 ± 0.0091	1.03 ± 0.046	1.02 ± 0.015	0.932 ± 0.018	0.914 ± 0.02
VCAP PROSTATE	1.11 ± 0.084	0.947 ± 0.086	0.995 ± 0.03	0.976 ± 0.08	0.758 ± 0.029	0.711 ± 0.12	0.397 ± 0.029	0.385 ± 0.017	0.921 ± 0.16	1.01 ± 0.046	1.05 ± 0.037	0.996 ± 0.07	1.06 ± 0.043	1.026 ± 0.004	0.992 ± 0.065	0.871 ± 0.056
VP229 BREAST	1.09 ± 0.33	1.09 ± 0.16	1.1 ± 0.12	0.995 ± 0.091	0.969 ± 0.026	0.922 ± 0.17	0.951 ± 0.1	0.873 ± 0.19	1.08 ± 0.1	1.04 ± 0.14	1.04 ± 0.15	0.952 ± 0.18	1.15 ± 0.2	0.998 ± 0.12	1.09 ± 0.088	0.966 ± 0.061
YAMATO SYNOVIAL	1.08 ± 0.09	1.05 ± 0.035	1.05 ± 0.07	0.852 ± 0.039	0.788 ± 0.014	0.675 ± 0.035	0.503 ± 0.029	0.452 ± 0.013	1.19 ± 0.048	1.16 ± 0.076	1.11 ± 0.04	1.01 ± 0.028	0.826 ± 0.044	0.678 ± 0.018	0.374 ± 0.0056	0.373 ± 0.02
ZR751 BREAST	1.23 ± 0.14	1.14 ± 0.15	1.04 ± 0.22	1 ± 0.15	1.01 ± 0.068	0.974 ± 0.11	1.04 ± 0.07	0.816 ± 0.017	0.87 ± 0.067	1.02 ± 0.013	1.05 ± 0.083	0.995 ± 0.032	1.04 ± 0.12	1.03 ± 0.086	1.07 ± 0.081	1.03 ± 0.087

From the supplement of paper PMC6045584
